Reference: patent US11925624B2, “Methods of administering anti-fibrotic therapy” (GENENTECH, INC., priority 2016, dated 2024)
Values joined by “and” are separate entries in the source; they are usually repeats but may differ in a detail not shown here. Equal entries are not always repeated. Where two headings read alike, the source gives them in different places.

Test: Phase 1 multiple ascending dose (Part B) pharmacokinetics after low-fat meal
Format: in vivo, human
Settings: for Tmax: median; for AUC: read-out: AUC0-τ; for CL renal: urine and plasma
Description: In Part B, 24 subjects were studied in 3 groups (Groups B1 to B3), with each group consisting of 8 subjects (6 received Compound I and 2 received placebo). The dose, dosing frequency, duration, and dietary state for Part B were determined based on review of available PK, safety, and tolerability data from Parts A and B.
All doses in Part B were administered following administration of a low-fat meal. In Groups B1 and B3, Compound I (200 mg for Group B1, 275 mg for Group B3) or placebo was administered twice daily (BID) on Days 1 to 6 and once on the morning of Day 7. In Group B2, subjects received QD dosing with 525 mg Compound I or placebo on Days 1 to 7.
In Part B, each subject participated in 1 treatment period. Subjects resided at the CRU from Day −1 (the day before dosing) until the morning of Day 10 (72 hours after the final dose on Day 7). All subjects returned for a Follow-up visit between 5 to 14 days after their final dose.
In Part B, all doses were administered after a low-fat meal. On Day 1 and Day 7 (days with post-dose PK sampling), subjects started a low-fat breakfast 30 minutes prior to dosing and were given 15 minutes to complete their meal; dosing occurred approximately 15 minutes after completion of breakfast. On dosing Days 2 through 6, subjects were to complete their breakfast within an hour prior to dosing. For the evening doses, subjects were given a standard meal and completed their meal between 1 and 2 hours prior to dosing.

[1] = 200 mg BID (B1), Day 1, low-fat meal
[2] = 200 mg BID (B1), Day 7, low-fat meal
[3] = 275 mg BID (B3), Day 1, low-fat meal
[4] = 275 mg BID (B3), Day 7, low-fat meal
[5] = 525 mg QD (B2), Day 1, low-fat meal
[6] = 525 mg QD (B2), Day 7, low-fat meal
[7] = human, plasma, oral, 200 mg, 200 mg BID (B1), Day 1, low-fat meal
[8] = human, plasma, oral, 200 mg, 200 mg BID (B1), Day 7, low-fat meal
[9] = human, plasma, oral, 275 mg, 275 mg BID (B3), Day 1, low-fat meal
[10] = human, plasma, oral, 275 mg, 275 mg BID (B3), Day 7, low-fat meal
[11] = human, plasma, oral, 525 mg, 525 mg QD (B2), Day 1, low-fat meal
[12] = human, plasma, oral, 525 mg, 525 mg QD (B2), Day 7, low-fat meal
[13] = human, plasma, oral, 200 mg BID (B1), Day 7, low-fat meal
[14] = human, plasma, oral, 275 mg BID (B3), Day 7, low-fat meal
[15] = human, plasma, oral, 525 mg QD (B2), Day 7, low-fat meal

AUC0-τ(norm) [1]: 11300 hr*ng/mL/(mg/kg)
Ae0-12 [1]: 105 mg
Cmax (norm) [1]: 1970 ng/mL/(mg/kg)
fe0-12 [1]: 52.5%
AUC0-τ(norm) [2]: 12600 hr*ng/mL/(mg/kg)
Ae0-12 [2]: 142 mg
CL/F [2]: 85.9 mL/min
CL/F(norm) [2]: 1.32 (mL/min)/kg
Cmax (norm) [2]: 1970 ng/mL/(mg/kg)
RAAUC (accumulation ratio based on AUC0-τ) [2]: 1.1 and 1.11
fe0-12 [2]: 71.2%
λZ [2]: 0.142 h⁻¹
Mean pre-dose (trough) Compound I concentration (200 mg BID, Day 7): 1680 ng/mL
AUC0-τ(norm) [3]: 9560 hr*ng/mL/(mg/kg)
Ae0-12 [3]: 162 mg
Cmax (norm) [3]: 1540 ng/mL/(mg/kg)
fe0-12 [3]: 58.9%
AUC0-τ(norm) [4]: 14300 hr*ng/mL/(mg/kg)
Ae0-12 [4]: 190 mg
CL/F [4]: 81.1 mL/min
CL/F(norm) [4]: 1.16 (mL/min)/kg
Cmax (norm) [4]: 1900 ng/mL/(mg/kg)
RAAUC (accumulation ratio based on AUC0-τ) [4]: 1.5
fe0-12 [4]: 69.1%
λZ [4]: 0.123 h⁻¹
Fold increase in geometric mean Cmax (275 mg BID vs 200 mg BID (1.4-fold increase in dose)): 1.2 fold
Mean pre-dose (trough) Compound I concentration (275 mg BID, Day 7): 3260 ng/mL
AUC0-τ(norm) [5]: 10500 hr*ng/mL/(mg/kg)
Ae0-12 [5]: 171 mg
Ae0-24 [5]: 242 mg
Cmax (norm) [5]: 1140 ng/mL/(mg/kg)
fe0-12 [5]: 32.6%
fe0-24 [5]: 46.1%
AUC0-τ(norm) [6]: 13100 hr*ng/mL/(mg/kg)
Ae0-12 [6]: 185 mg
Ae0-24 [6]: 284 mg
CL/F [6]: 89.4 mL/min
CL/F(norm) [6]: 1.27 (mL/min)/kg
Cmax (norm) [6]: 1260 ng/mL/(mg/kg)
RAAUC (accumulation ratio based on AUC0-τ) [6]: 1.3 and 1.25
fe0-12 [6]: 35.3%
fe0-24 [6]: 54.0%
λZ [6]: 0.0544 h⁻¹
Fold increase in geometric mean AUC0-∞ (525 mg QD vs 200 mg BID (2.6-fold increase in dose)): 2.5 fold
Mean pre-dose (trough) Compound I concentration (525 mg QD, Day 7): 897 ng/mL
Time to steady-state plasma concentrations (200 and 275 mg BID and 525 mg QD): ≤ 2 days
Tmax at 1 day (human, plasma, oral, 200 mg BID, 275 mg BID, 525 mg QD, Day 1, read-out: Median tmax, range across regimens): 2.3 to 3.5 h
Tmax at 7 day (human, plasma, oral, 200 mg BID, 275 mg BID, 525 mg QD, Day 7, read-out: Median tmax, range across regimens): 2.8 to 4 h
Cmax [7]: 6080 ng/mL
Tmax [7]: 3 h
AUC [7]: 34900 ng·h/mL
Cmax [8]: 6060 ng/mL
Tmax [8]: 4 h
AUC [8]: 38800 ng·h/mL
Cmax [9]: 6070 ng/mL
Tmax [9]: 2.28 h
AUC [9]: 37700 ng·h/mL
Cmax [10]: 7500 ng/mL
Tmax [10]: 2.75 h
AUC [10]: 56500 ng·h/mL
Cmax [11]: 8510 ng/mL
Tmax [11]: 3.5 h
AUC [11]: 78100 ng·h/mL
Cmax [12]: 9440 ng/mL
Tmax [12]: 3.53 h
AUC [12]: 97800 ng·h/mL
half-life [13]: 4.89 h
half-life at 7 day [13]: 4.9 h
Vd/F (human, plasma, oral, 200 mg BID (B1), Day 7, low-fat meal, read-out: Vz/F): 36.1 L
Vd/F (human, plasma, oral, 200 mg BID (B1), Day 7, low-fat meal, read-out: Vz/F(norm)): 0.576 L/kg
half-life [14]: 5.64 h
half-life at 7 day [14]: 5.6 h
Vd/F (human, plasma, oral, 275 mg BID (B3), Day 7, low-fat meal, read-out: Vz/F): 39.6 L
Vd/F (human, plasma, oral, 275 mg BID (B3), Day 7, low-fat meal, read-out: Vz/F(norm)): 0.568 L/kg
half-life [15]: 6.25 h
half-life at 7 day [15]: 6.3 h
Vd/F (human, plasma, oral, 525 mg QD (B2), Day 7, low-fat meal, read-out: Vz/F): 98.6 L
Vd/F (human, plasma, oral, 525 mg QD (B2), Day 7, low-fat meal, read-out: Vz/F(norm)): 1.4 L/kg
CL renal (human, oral, 200 mg, 200 mg BID (B1), Day 1, low-fat meal): 50.2 mL/min
CL renal (human, oral, 200 mg, 200 mg BID (B1), Day 7, low-fat meal): 61.2 mL/min
CL renal (human, oral, 275 mg, 275 mg BID (B3), Day 1, low-fat meal): 71.6 mL/min
CL renal (human, oral, 275 mg, 275 mg BID (B3), Day 7, low-fat meal): 56.1 mL/min
CL renal (human, oral, 525 mg, 525 mg QD (B2), Day 1, low-fat meal): 51.7 mL/min
CL renal (human, oral, 525 mg, 525 mg QD (B2), Day 7, low-fat meal): 48.3 mL/min
SMILES: Cn1cc(-c2cn(-c3ccc(OC(F)(F)F)cc3)c(=O)c3ncn(C)c23)cn1 [Compound I]
